Data published in paper PMC3849192, “A Simple Method for Assessing Free Brain/Free Plasma Ratios Using an In Vitro Model of the Blood Brain Barrier” (PLoS ONE, 2013).
Like-named read-outs stand apart in the source and are kept apart here.

Key:
[1] = test system: in vitro BBB model (co-culture of bovine brain capillary endothelial cells and rat glial cells); experiment: In vitro BBB co-culture model, Cu,br/Cu,pl ratio; conditions: for In vitro Cu,br/Cu,pl Mean 1 h: 2 µM in luminal compartment, abluminal/luminal concentration at 1 h; for In vitro Cu,br/Cu,pl Mean steady-state: steady-state ratio computed from 1 h data with the blue-norna steady-state calculator
Method: Figure 1 Schematic diagram of the experimental protocol. After 12 days of coculture in cell culture medium, both compartments of the in vitro BBB model consisting of a coculture of brain capillary endothlial cells and rat primary glial cells were filled with Hepes-buffered Ringer’s solution and the compounds dissolved at 2 µM were added in the luminal compartment (i.e donor). The presence of glial cells in the abluminal compartment was used to reproduce the non specific binding to brain tisssue within the brain prenchyma in vivo. After 1 hour, aliquots were taken from both compartments. In vitro Cu,br/Cu,pl at 1 h were calculated by dividing the concentration in the abluminal compartment (∼Cu,br) by the concentration in the luminal compartment (∼Cu,pl) at 1 h. The experimental data at 1 h were computed using the blue-norna steady-state calculator to generate the in vitro steady-state Cu,br/Cu,pl.
One hour after the addition of compounds dissolved at 2 µM in the luminal (i.e upper) compartment, aliquots were taken from both compartments previously filled with Hepes-buffered Ringer’s solution at the beginning of the experiment. […] The concentrations in both compartments of the in vitro assay after 1 h were computed using […] blue-norna.com to generate the in vitro steady-state Cu,br/Cu,pl.
The method of Dehouck et al. was used with minor modifications (Fig. 1). Bovine brain endothelial cells isolated from capillary fragments were cocultured with primary mixed glial cells from newborn Sprague–Dawley rats. The glial cells were isolated according to the method of Booher and Sensenbrenner and cultured for 3 weeks, plated on the bottom of cell culture clusters containing six wells each. The endothelial cells were seeded onto collagen-coated polycarbonate cell culture inserts (4.7 cm^2) (Corning Incorp. NY, USA), which were placed in the wells containing glial cells. The medium used for the coculture was Dulbecco’s modified Eagle’s medium supplemented with 10% calf serum, 10% horse serum, 2 mmol/L glutamine, 50 mg/L gentamicin and 1 µg/L basic fibroblast growth factor (Sigma). The medium was changed every second day. Experiments were usually initiated after 12 days of co-culture.
To monitor the integrity of the endothelial cell monolayer, the marker molecule [^14C] sucrose was added to the solution at a concentration of 0.05 µCi/ml. At the start of the transport experiments, buffered Ringer’s solution (pH = 7.4) was added to wells with glial cells. Inserts with brain endothelial cells were placed in these wells and drug solutions at 2 µM were added to the donor compartment. The plates were incubated for 1 h in a polymix shaker at 37°C with a low shaking velocity. Aliquots were taken from the donor compartment in the beginning and at the end of the experiments. The receiver compartments were sampled at the end of the experiments.
The amount of radiotracer in the abluminal compartment was measured in a liquid scintillation analyser (Packard Instrument Company, Meriden, USA). […] The concentrations of the test compound in all samples were analysed by MS/MS.
The mean free brain/plasma ratios were calculated from three individual experiments. One hour ratios were calculated by dividing the drug concentration in the receiver compartment by the free drug concentration in the donor compartment after 1 h. The experimental data at one hour (i.e concentration in both compartment at the beginning of the experiment and after 1 h) were computed using the blue-norna® steady-state calculator (www.blue-norna.com) to predict the in vivo steady-state Cu,br/Cu,pl ratios. For further details on this calculation method see file S1.
The in vivo steady-state Cu,br/Cu,pl were predicted from the in vitro experimental data collected after one hour according to the following equation: […]
Cdonor, t and Creceiver, t are the concentration of drug in the donor and receiver chambers at time t.

[2] = Fraction unbound brain (fu,br), brain homogenate equilibrium dialysis
Method: The degree of brain binding was assessed by equilibrium dialysis. Brain homogenate (10%) was spiked with test compound at 1 µM in triplicate. […] The plate was then placed in a shaker/incubator to equilibrate for 18 hrs at 37°C. […] After the addition of 50 µl of buffer to the brain homogenate samples, 150 µl of acetonitrile was added to each sample. Finally, 50 µl of water was added to all buffer and brain homogenate samples. The plates were centrifuged and the supernatant analyzed by LC-MS/MS.

[3] = Fraction unbound brain (fu,br), brain slice method
Method: Rats (male Sprague-Dawley) were decapitated under isoflurane anesthesia and the brains were removed carefully and immersed in ice-cold oxygenated physiological buffer at pH7.4. A 6 mm coronal section was cut with a razor and mounted with cyanoacrylate glue onto the tray of the microslicer (DTK-Zero 1 Microslicer, Dosak) after which six to eight 300 µm coronal slices from striatal areas were prepared. […] The compounds were dissolved at 1 µM in the buffer and the solution was incubated with the slice for 5 h.
After 5 h, the brain slices were weighed and homogenized in 9 volumes (w/v) of ECF buffer with a sonicator (SONICS VCX 500 and VCX 130). The slice homogenates in ECF buffer were stored at −20°C prior to analysis. The concentrations of the test compound in the brain slice homogenate and in the ECF buffer was determined by LC-MS/MS.
The unbound volume of distribution Vu,brain, or free fraction fu,brain was calculated according to the following equations: [drawing 1] [drawing 2] where Cslice, CECF and V0 are amount of drug in the slice, the drug concentration in the ECF (representing the drug concentration in the brain ECF, i.e. the free concentration), and the water adhesion of the brain slice. V0 has been estimated using ^14C -inulin in a separate experiment in which brain slices were incubated for 1, 2, and 4 min. V0 was obtained from brain slice uptake – inulin time profile (apparent zero-time intercept).

[4] = In vivo brain exposure (Cu,br/Cu,pl) under steady-state like conditions after intravenous administration; conditions: rat, i.v. bolus plus infusion; for In vivo Cu,br/Cu,pl (homog.) Mean steady-state: Cbr/Cpl x fubr/fupl with fu,br from brain homogenate; for In vivo Cu,br/Cu,pl (slice) Mean steady-state: Cbr/Cpl x fubr/fupl with fu,br from brain slice
Method: Rat plasma was obtained from Sprague-Dawley rats in-house. Plasma from three individuals was pooled and mixed with up to 4 compounds with a concentration of 10 µM each (in 0.1% DMSO). A 48-well dialysis apparatus (AstraZeneca, Mölndal) was used to determine the plasma free fraction. The dialysis membrane (AstraZeneca, Mölndal) was conditioned in Milli/Q water before use. […] The samples were incubated on an orbital shaker (4 mm in diameter and 100 rpm) at 37 °C for 18 hrs. […] After plasma protein precipitation by the addition of 150 µl of acetonitrile to each plasma sample in order to precipitate plasma proteins. The plates were centrifuged and the supernatant analyzed by LC-MS/MS. The fu in plasma was calculated from the ratio of the MS-area of the compound in the buffer to the MS-area of the compound in the plasma.
The CNS exposure of 92 compounds (i.e 30 drugs and 62 proprietary compounds) was assessed under steady-state like conditions after intravenous administration. The time to approach steady-state (taken as at least 3.5 half-lives) was determined from prior studies of the pharmacokinetics of individual compounds after intravenous administration. The rats were put in restraint cages and cannulated via the tail vein. On the day of the experiment, the rats received a bolus injection followed by infusion. The infusion rate and infusion time were determined separately for each compound. The test formulation was administered using an infusion pump (CMA/100 or Univentor 400 microinjection pump).
Blood samples (400 µL) were collected by rapidly anaesthetizing the rats and keeping them under anesthesia with isofluran. Blood was collected either through heart puncture, from the tail vein or the orbital venous plexus and put into EDTA tubes, which were immediately placed on ice and centrifuged within 30 min at 4°C for 5 min at 2000 g to obtain plasma. The plasma was transferred by glass or plastic pipettes to 1.5 ml MTP system topaz vials and immediately frozen to −70°C or lower and stored at −20°C until assayed.
After blood collection, the whole brain was rapidly removed from the animal skull and weighed after which it was frozen and stored at −20°C. Before analysis with LC-MS/MS, the brain samples were sonicated (SONICS Vibracell VCX 130) in Ringer solution (2-fold the brain weight; e.g. 1 gram brain plus 2 mL Ringer).
The unbound brain exposure was assessed as Cu,br/Cu,pl, which is the free brain-free plasma concentration ratio. The Cu,br/Cu,pl ratios were obtained from total brain plasma ratios (Ctot,br/Ctot,pl) by using in vitro determined fu,br and fu,pl values according to: [drawing 4]
Brain concentrations were corrected for residual blood volume using 13 µl/g based on the vascular space of the marker [14C]-sucrose.

Compound	In vitro Cu,br/Cu,pl Mean 1 h [1]	In vitro Cu,br/Cu,pl Mean steady-state [1]	fubrain (homog.) Mean ([2]; brain homogenate (10%), 1 µM, equilibrium dialysis 18 hrs at 37°C)	fubrain (slice) Mean ([3]; rat brain slices 300 µm, 1 µM, 5 h incubation)	In vivo Cu,br/Cu,pl (homog.) Mean steady-state [4]	In vivo Cu,br/Cu,pl (slice) Mean steady-state [4]	fubrain (homog.) Mean [2]	fubrain (slice) Mean [3]
CC(NC(C)(C)C)C(=O)c1cccc(Cl)c1 (stereo not drawn) [Buproprion]	0.24	0.51	0.1710	0.1600	1.07	1.00	–	–
Fc1ccc([C@@H]2CCNC[C@H]2COc2ccc3c(c2)OCO3)cc1 [Paroxetin]	0.08	0.79	–	–	0.86	0.53	0.0039	0.0024
